Measurements published in PubChem BioAssay (NCI).
Where “and” joins values, the source holds several entries; their conditions need not be identical. Equal values may be shown once.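 Cells were grown in 96-well plates and exposed to each compound for 48 hours at five concentrations; endpoints were interpolated linearly between bracketing concentrations, or set to the highest concentration if not reached. Abbreviation: GI50, concentration required for 50% inhibition of growth. The concentration for full growth arrest is given as TGI.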 Where a SMILES comes first, the peptide text is derived from it. [ ]: non-standard residue; d: D form. The star is where a group is joined. hSer = N[CH](CCO)C(=O)O; Boc = CC(C)(C)OC(=O)*; Bn = c1ccc(C*)cc1

Tests used:
Test in all cases: NCI tumour cell line growth inhibition, 48 h
SR leukemia = tested on: SR leukemia
OVCAR-4 ovarian = tested on: OVCAR-4 ovarian
CCRF-CEM leukemia = tested on: CCRF-CEM leukemia
LOX IMVI melanoma = tested on: LOX IMVI melanoma
HS 578T breast = tested on: HS 578T breast
SK-MEL-5 melanoma = tested on: SK-MEL-5 melanoma
ACHN renal = tested on: ACHN renal
UO-31 renal = tested on: UO-31 renal
K-562 leukemia = tested on: K-562 leukemia
PC-3 prostate = tested on: PC-3 prostate
IGROV1 ovarian = tested on: IGROV1 ovarian
SNB-19 CNS = tested on: SNB-19 CNS
OVCAR-5 ovarian = tested on: OVCAR-5 ovarian
HT29 colon = tested on: HT29 colon
OVCAR-3 ovarian = tested on: OVCAR-3 ovarian
SN12C renal = tested on: SN12C renal
SW-620 colon = tested on: SW-620 colon
MOLT-4 leukemia = tested on: MOLT-4 leukemia
U251 CNS = tested on: U251 CNS
KM12 colon = tested on: KM12 colon
MCF7 breast = tested on: MCF7 breast
A498 renal = tested on: A498 renal
RPMI-8226 leukemia = tested on: RPMI-8226 leukemia
NCI/ADR-RES ovarian = tested on: NCI/ADR-RES ovarian
HCC-2998 colon = tested on: HCC-2998 colon
EKVX NSCLC = tested on: EKVX NSCLC
NCI-H460 lung = tested on: NCI-H460 lung
TK-10 renal = tested on: TK-10 renal
SNB-75 CNS = tested on: SNB-75 CNS
M14 melanoma = tested on: M14 melanoma
SK-OV-3 ovarian = tested on: SK-OV-3 ovarian
NCI-H23 lung = tested on: NCI-H23 lung
RXF 393 renal = tested on: RXF 393 renal
BT-549 breast = tested on: BT-549 breast
786-0 renal = tested on: 786-0 renal
HL-60(TB) leukemia = tested on: HL-60(TB) leukemia
UACC-62 melanoma = tested on: UACC-62 melanoma
SF-539 CNS = tested on: SF-539 CNS
SK-MEL-28 melanoma = tested on: SK-MEL-28 melanoma
CAKI-1 renal = tested on: CAKI-1 renal
NCI-H226 lung = tested on: NCI-H226 lung
A549 NSCLC = tested on: A549 NSCLC
HOP-92 NSCLC = tested on: HOP-92 NSCLC
HCT-15 colon = tested on: HCT-15 colon
SF-268 CNS = tested on: SF-268 CNS
NCI-H522 lung = tested on: NCI-H522 lung
OVCAR-8 ovarian = tested on: OVCAR-8 ovarian
COLO 205 colon = tested on: COLO 205 colon
T-47D breast = tested on: T-47D breast
HOP-62 NSCLC = tested on: HOP-62 NSCLC
DU-145 prostate = tested on: DU-145 prostate
UACC-257 melanoma = tested on: UACC-257 melanoma
SK-MEL-2 melanoma = tested on: SK-MEL-2 melanoma
MDA-MB-435 = tested on: MDA-MB-435
MDA-MB-231 breast = tested on: MDA-MB-231 breast
SF-295 CNS = tested on: SF-295 CNS
HCT-116 colon = tested on: HCT-116 colon
MALME-3M melanoma = tested on: MALME-3M melanoma

## COc1cc(C2C3=C(CCCC3=O)N(c3ccc(C)cc3)C3=C2C(=O)CCC3)c([N+](=O)[O-])cc1OC
SR leukemia
  TGI: > 100 µM
OVCAR-4 ovarian
  TGI: > 100 µM
CCRF-CEM leukemia
  TGI: > 100 µM
LOX IMVI melanoma
  TGI: > 100 µM
HS 578T breast
  TGI: > 100 µM
SK-MEL-5 melanoma
  TGI: > 100 µM
ACHN renal
  TGI: > 100 µM
UO-31 renal
  TGI: > 100 µM
K-562 leukemia
  TGI: > 100 µM
PC-3 prostate
  TGI: > 100 µM
IGROV1 ovarian
  TGI: > 100 µM
SNB-19 CNS
  TGI: > 100 µM
OVCAR-5 ovarian
  TGI: > 100 µM
HT29 colon
  TGI: > 100 µM
OVCAR-3 ovarian
  TGI: > 100 µM
SN12C renal
  TGI: > 100 µM
SW-620 colon
  TGI: > 100 µM
MOLT-4 leukemia
  TGI: > 100 µM
U251 CNS
  TGI: > 100 µM
KM12 colon
  TGI: > 100 µM
MCF7 breast
  TGI: > 100 µM
A498 renal
  TGI: > 100 µM
RPMI-8226 leukemia
  TGI: > 100 µM
NCI/ADR-RES ovarian
  TGI: > 100 µM
HCC-2998 colon
  TGI: > 100 µM
EKVX NSCLC
  TGI: > 100 µM
NCI-H460 lung
  TGI: > 100 µM
TK-10 renal
  TGI: > 100 µM
SNB-75 CNS
  TGI: > 100 µM
M14 melanoma
  TGI: > 100 µM
SK-OV-3 ovarian
  TGI: > 100 µM
NCI-H23 lung
  TGI: > 100 µM
RXF 393 renal
  TGI: > 100 µM
BT-549 breast
  TGI: > 100 µM
786-0 renal
  TGI: > 100 µM
HL-60(TB) leukemia
  TGI: > 100 µM
UACC-62 melanoma
  TGI: > 100 µM
SF-539 CNS
  TGI: > 100 µM
SK-MEL-28 melanoma
  TGI: > 100 µM
CAKI-1 renal
  TGI: > 100 µM
NCI-H226 lung
  TGI: > 100 µM
A549 NSCLC
  TGI: > 100 µM
HOP-92 NSCLC
  TGI: > 100 µM
HCT-15 colon
  TGI: > 100 µM
SF-268 CNS
  TGI: > 100 µM

## Oc1c(Cl)c(Cl)c(Cl)c(Cl)c1Cl (tested in a mixture with another compound)
CCRF-CEM leukemia
  TGI: 62.3 µM
HL-60(TB) leukemia
  TGI: 39 µM and 10 µM
NCI-H226 lung
  TGI: 41.7 µM

## C=C1C(=O)O[C@H]2[C@H]1CC/C(COC(=O)OC/C1=C/CC[C@@]3(C)O[C@H]3[C@H]3OC(=O)[C@@H](CN(C)C)[C@@H]3CC1)=C\CC[C@@]1(C)O[C@@H]21
OVCAR-4 ovarian
  GI50: 1.42 µM
  TGI: 3.1 µM
CCRF-CEM leukemia
  GI50: 0.247 µM
  TGI: 0.733 µM
LOX IMVI melanoma
  GI50: 1.47 µM
  TGI: 2.97 µM
HS 578T breast
  GI50: 4.39 µM
  TGI: 26.9 µM
SK-MEL-5 melanoma
  GI50: 3.97 µM
  TGI: 15.1 µM
ACHN renal
  GI50: 0.457 µM
  TGI: 1.69 µM
UO-31 renal
  GI50: 1.04 µM
  TGI: 2.25 µM
NCI-H522 lung
  GI50: 0.214 µM
  TGI: 0.513 µM
PC-3 prostate
  GI50: 2.7 µM
  TGI: 7.89 µM
IGROV1 ovarian
  GI50: 2.3 µM
  TGI: 8.22 µM
OVCAR-8 ovarian
  GI50: 2.31 µM
  TGI: 10.2 µM
COLO 205 colon
  GI50: 0.487 µM
  TGI: 1.93 µM
SNB-19 CNS
  GI50: 4.67 µM
  TGI: 18.3 µM
OVCAR-5 ovarian
  GI50: 2.13 µM
  TGI: 5.21 µM
T-47D breast
  GI50: 0.714 µM
  TGI: 3.08 µM
HT29 colon
  GI50: 0.996 µM
  TGI: 2.47 µM
OVCAR-3 ovarian
  GI50: 0.501 µM
  TGI: 1.7 µM
SN12C renal
  GI50: 2.79 µM
  TGI: 10.2 µM
SW-620 colon
  GI50: 0.445 µM
  TGI: 1.85 µM
HOP-62 NSCLC
  GI50: 12.2 µM
  TGI: 26.5 µM
MOLT-4 leukemia
  GI50: 0.874 µM
  TGI: 3.75 µM
U251 CNS
  GI50: 3.3 µM
  TGI: 12.5 µM
KM12 colon
  GI50: 5.49 µM
  TGI: 18.7 µM
DU-145 prostate
  GI50: 1.65 µM
  TGI: 3.32 µM
A498 renal
  GI50: 8.29 µM
  TGI: 21.8 µM
RPMI-8226 leukemia
  GI50: 0.372 µM
  TGI: 1.94 µM
NCI/ADR-RES ovarian
  GI50: 12.8 µM
  TGI: 29.7 µM
UACC-257 melanoma
  GI50: 1.63 µM
  TGI: 4.11 µM
SK-MEL-2 melanoma
  GI50: 2.27 µM
  TGI: 5.88 µM
HCC-2998 colon
  GI50: 2.96 µM
  TGI: 8.2 µM
EKVX NSCLC
  GI50: 2.17 µM
  TGI: 9.39 µM
MDA-MB-435
  GI50: 1.81 µM
  TGI: 4.31 µM
NCI-H460 lung
  GI50: 5.38 µM
  TGI: 19.9 µM
TK-10 renal
  GI50: 1.18 µM
  TGI: 2.57 µM
SNB-75 CNS
  GI50: 4.89 µM
  TGI: 25.1 µM
M14 melanoma
  GI50: 1.54 µM
  TGI: 3.35 µM
SK-OV-3 ovarian
  GI50: 12.8 µM
  TGI: 25.4 µM
NCI-H23 lung
  GI50: 2.86 µM
  TGI: 10.2 µM
RXF 393 renal
  GI50: 0.306 µM
  TGI: 1.35 µM
BT-549 breast
  GI50: 1.41 µM
  TGI: 2.8 µM
786-0 renal
  GI50: 1.31 µM
  TGI: 2.79 µM
HL-60(TB) leukemia
  GI50: 0.233 µM
  TGI: 0.845 µM
UACC-62 melanoma
  GI50: 1.85 µM
  TGI: 5.13 µM
SF-539 CNS
  GI50: 1.8 µM
  TGI: 4.4 µM
MDA-MB-231 breast
  GI50: 1.49 µM
  TGI: 3.07 µM
SK-MEL-28 melanoma
  GI50: 1.57 µM
  TGI: 4.23 µM
NCI-H226 lung
  GI50: 2.65 µM
  TGI: 10 µM
SF-295 CNS
  GI50: 12.1 µM
  TGI: 24.9 µM
A549 NSCLC
  GI50: 10.8 µM
  TGI: 24.3 µM
HOP-92 NSCLC
  GI50: 0.497 µM
  TGI: 1.98 µM
HCT-116 colon
  GI50: 1.13 µM
  TGI: 2.35 µM
MALME-3M melanoma
  GI50: 1.26 µM
  TGI: 3.12 µM
HCT-15 colon
  GI50: 1.04 µM
  TGI: 2.53 µM
SF-268 CNS
  GI50: 3.07 µM
  TGI: 13.7 µM

## CC(C)CC(NC(=O)OC(C)(C)C)C(=O)NC(CCOCc1ccccc1)C(N)=O (stereo not drawn) (Boc-Leu-[hSer](Bn)-NH2; configuration not given here)
SK-OV-3 ovarian
  GI50: 46.1 µg/mL
HOP-92 NSCLC
  GI50: 21.4 µg/mL
  TGI: 57.4 µg/mL
